Data published in ChEMBL document CHEMBL4819021, “Paratrimerins J-Y, Dimeric Coumarins Isolated from the Stems of Paramignya trimera” (J Nat Prod, 2021).
The source made the active and inactive calls.

Key:
Format in all cases: functional, cell-based
MDA-MB-468 = test: Cytotoxicity against human MDA-MB-468 cells assessed as reduction in cell viability at 40 uM measured after 72 hrs by MTS assay
SW-620 = test: Cytotoxicity against human SW-620 cells assessed as reduction in cell viability at 40 uM measured after 72 hrs by MTS assay
T47D = test: Cytotoxicity against human T47D cells assessed as reduction in cell viability at 40 uM measured after 72 hrs by MTS assay
BT-549 = test: Cytotoxicity against human BT-549 cells assessed as reduction in cell viability at 40 uM measured after 72 hrs by MTS assay
SW480 = test: Cytotoxicity against human SW480 cells assessed as reduction in cell viability at 40 uM measured after 72 hrs by MTS assay
HCT-116 = test: Cytotoxicity against human HCT-116 cells assessed as reduction in cell viability at 40 uM measured after 72 hrs by MTS assay
SK-BR-3 = test: Cytotoxicity against human SK-BR-3 cells assessed as reduction in cell viability at 40 uM measured after 72 hrs by MTS assay
HCT-8 = test: Cytotoxicity against human HCT-8 cells assessed as reduction in cell viability at 40 uM measured after 72 hrs by MTS assay
HCC38 = test: Cytotoxicity against human HCC38 cells assessed as reduction in cell viability at 40 uM measured after 72 hrs by MTS assay
SK-HEP1 = test: Cytotoxicity against human SK-HEP1 cells assessed as reduction in cell viability at 40 uM measured after 72 hrs by MTS assay
MCF7 = test: Cytotoxicity against human MCF7 cells assessed as reduction in cell viability at 40 uM measured after 72 hrs by MTS assay
KM12 = test: Cytotoxicity against human KM12 cells assessed as reduction in cell viability at 40 uM measured after 72 hrs by MTS assay
HCC70 = test: Cytotoxicity against human HCC70 cells assessed as reduction in cell viability at 40 uM measured after 72 hrs by MTS assay
HCC1428 = test: Cytotoxicity against human HCC1428 cells assessed as reduction in cell viability at 40 uM measured after 72 hrs by MTS assay
Hs-578T = test: Cytotoxicity against human Hs-578T cells assessed as reduction in cell viability at 40 uM measured after 72 hrs by MTS assay
MDA-MB-231 = test: Cytotoxicity against human MDA-MB-231 cells assessed as reduction in cell viability at 40 uM measured after 72 hrs by MTS assay
MDA-MB-435 = test: Cytotoxicity against human MDA-MB-435 cells assessed as reduction in cell viability at 40 uM measured after 72 hrs by MTS assay
RKO = test: Cytotoxicity against human RKO cells assessed as reduction in cell viability at 40 uM measured after 72 hrs by MTS assay
COLO 205 = test: Cytotoxicity against human COLO 205 cells assessed as reduction in cell viability at 40 uM measured after 72 hrs by MTS assay

Measured: Activity

CC1=C[C@H](c2cc3ccc(=O)oc3cc2O[C@@H]2O[C@H](COC3OC[C@@H](O)[C@H](O)[C@H]3O)[C@@H](O)[C@H](O)[C@H]2O)[C@@](C)(/C=C/c2cc3ccc(=O)oc3cc2O[C@@H]2O[C@H](CO)[C@@H](O)[C@H](O)[C@H]2O)CC1 (stereo partly specified)
inactive: MDA-MB-468 | SW-620 | T47D | BT-549 | SW480 | HCT-116 | SK-BR-3 | HCT-8 | HCC38 | SK-HEP1 | MCF7 | KM12 | HCC70 | HCC1428 | Hs-578T | MDA-MB-231 | MDA-MB-435 | RKO | COLO 205

CC1=C[C@@H](c2cc3ccc(=O)oc3cc2O[C@@H]2O[C@H](CO[C@@H]3OC[C@](O)(CO)[C@H]3O)[C@@H](O)[C@H](O)[C@H]2O)[C@@](C)(/C=C/c2cc3ccc(=O)oc3cc2O[C@@H]2O[C@H](CO)[C@@H](O)[C@H](O)[C@H]2O)CC1
inactive: MDA-MB-468 | SW-620 | T47D | BT-549 | SW480 | HCT-116 | SK-BR-3 | HCT-8 | HCC38 | SK-HEP1 | MCF7 | KM12 | HCC70 | HCC1428 | Hs-578T | MDA-MB-231 | MDA-MB-435 | RKO | COLO 205

CC1=C[C@@H](c2cc3ccc(=O)oc3cc2O[C@@H]2O[C@H](CO)[C@@H](O)[C@H](O)[C@H]2O)[C@@](C)(/C=C/c2cc3ccc(=O)oc3cc2O[C@@H]2O[C@H](COC3OC[C@@H](O)[C@H](O)[C@H]3O)[C@@H](O)[C@H](O)[C@H]2O)CC1 (stereo partly specified)
inactive: MDA-MB-468 | SW-620 | T47D | BT-549 | SW480 | HCT-116 | SK-BR-3 | HCT-8 | HCC38 | SK-HEP1 | MCF7 | KM12 | HCC70 | HCC1428 | Hs-578T | MDA-MB-231 | MDA-MB-435 | RKO | COLO 205

CC1=C[C@@H](c2cc3ccc(=O)oc3cc2O[C@@H]2O[C@H](CO)[C@@H](O)[C@H](O)[C@H]2O)[C@@](C)(/C=C/c2cc3ccc(=O)oc3cc2O[C@@H]2O[C@H](CO[C@@H]3OC[C@](O)(CO)[C@H]3O)[C@@H](O)[C@H](O)[C@H]2O)CC1
inactive: MDA-MB-468 | SW-620 | T47D | BT-549 | SW480 | HCT-116 | SK-BR-3 | HCT-8 | HCC38 | SK-HEP1 | MCF7 | KM12 | HCC70 | HCC1428 | Hs-578T | MDA-MB-231 | MDA-MB-435 | RKO | COLO 205

CC1=C[C@H](c2cc3ccc(=O)oc3cc2O[C@@H]2O[C@H](CO)[C@@H](O)[C@H](O)[C@H]2O)[C@](C)(/C=C/c2cc3ccc(=O)oc3cc2O[C@@H]2O[C@H](COC3OC[C@@H](O)[C@H](O)[C@H]3O)[C@@H](O)[C@H](O)[C@H]2O)CC1 (stereo partly specified)
inactive: MDA-MB-468 | SW-620 | T47D | BT-549 | SW480 | HCT-116 | SK-BR-3 | HCT-8 | HCC38 | SK-HEP1 | MCF7 | KM12 | HCC70 | HCC1428 | Hs-578T | MDA-MB-231 | MDA-MB-435 | RKO | COLO 205

CC1=C[C@@H](c2cc3ccc(=O)oc3cc2O[C@@H]2O[C@H](COC3OC[C@@H](O)[C@H](O)[C@H]3O)[C@@H](O)[C@H](O)[C@H]2O)[C@@](C)(/C=C/c2cc3ccc(=O)oc3cc2O[C@@H]2O[C@H](COC3OC[C@@H](O)[C@H](O)[C@H]3O)[C@@H](O)[C@H](O)[C@H]2O)CC1 (stereo partly specified)
inactive: MDA-MB-468 | SW-620 | T47D | BT-549 | SW480 | HCT-116 | SK-BR-3 | HCT-8 | HCC38 | SK-HEP1 | MCF7 | KM12 | HCC70 | HCC1428 | Hs-578T | MDA-MB-231 | MDA-MB-435 | RKO | COLO 205

CC1=C[C@@H](c2cc3ccc(=O)oc3cc2O[C@@H]2O[C@H](CO)[C@@H](O)[C@H](O)[C@H]2O)[C@@](C)(/C=C/c2cc3ccc(=O)oc3cc2O[C@@H]2O[C@H](CO)[C@@H](O)[C@H](O)[C@H]2O)CC1
inactive: MDA-MB-468 | SW-620 | T47D | BT-549 | SW480 | HCT-116 | SK-BR-3 | HCT-8 | HCC38 | SK-HEP1 | MCF7 | KM12 | HCC70 | HCC1428 | Hs-578T | MDA-MB-231 | MDA-MB-435 | RKO | COLO 205

CC1=C[C@H](c2cc3ccc(=O)oc3cc2O[C@@H]2O[C@H](COC3OC[C@@H](O)[C@H](O)[C@H]3O)[C@@H](O)[C@H](O)[C@H]2O)[C@](C)(/C=C/c2cc3ccc(=O)oc3cc2O[C@@H]2O[C@H](CO)[C@@H](O)[C@H](O)[C@H]2O)CC1 (stereo partly specified)
inactive: MDA-MB-468 | SW-620 | T47D | BT-549 | SW480 | HCT-116 | SK-BR-3 | HCT-8 | HCC38 | SK-HEP1 | MCF7 | KM12 | HCC70 | HCC1428 | Hs-578T | MDA-MB-231 | MDA-MB-435 | RKO | COLO 205

CC1=C[C@@H](c2cc3ccc(=O)oc3cc2O[C@@H]2O[C@H](COC3OC[C@@H](O)[C@H](O)[C@H]3O)[C@@H](O)[C@H](O)[C@H]2O)[C@@](C)(/C=C/c2cc3ccc(=O)oc3cc2O[C@@H]2O[C@H](CO)[C@@H](O)[C@H](O)[C@H]2O)CC1 (stereo partly specified)
inactive: MDA-MB-468 | SW-620 | T47D | BT-549 | SW480 | HCT-116 | SK-BR-3 | HCT-8 | HCC38 | SK-HEP1 | MCF7 | KM12 | HCC70 | HCC1428 | Hs-578T | MDA-MB-231 | MDA-MB-435 | RKO | COLO 205
